# Test results taken from publication PMC5882164, “A novel calcimimetic agent, evocalcet (MT-4580/KHK7580), suppresses the parathyroid cell function with little effect on the gastrointestinal tract or CYP isozymes in vivo and in vitro” (PLoS ONE, 2018).
# Several values for one entry are separate records, joined by “and”; a condition that tells them apart may be missing. Equal values may be shown once.
# Test: Plasma concentrations of evocalcet after repeated oral administration to 5/6 nephrectomized rats
# Format: in vivo, rat
# Settings: 5/6 Nx rats
# Protocol: In the single-dose study, blood samples were collected from the tail vein before and at 0.5, 2, 4, 8, 24, 48, and 72 h after the oral administration of vehicle (0.5% methyl cellulose solution) or evocalcet (0.03, 0.1, 0.3, or 1 mg/kg). In the repeated-dose study, vehicle or evocalcet was orally administered to the respective groups once daily for 14 days. Blood samples were obtained from the tail vein before the first administration and after the seventh and last administrations.
# The plasma concentrations of evocalcet were determined after single or repeated oral administration in both normal and 5/6 Nx rats. The pharmacokinetic (PK) parameters of the rat plasma concentrations were calculated individually using Phoenix WinNonlin 6.2, a PK analysis software program (Pharsight Corporation, Sunnyvale, CA).
structure (smiles),measurement,setting,value
C[C@@H](N[C@H]1CCN(c2ccc(CC(=O)O)cc2)C1)c1cccc2ccccc12 [evocalcet],Plasma concentration,"repeated oral 0.03 mg/kg, Day 1, 0.5 h, individual rats, 0.03 mg/kg",36.58 ng/mL and 70.85 ng/mL and 82.54 ng/mL and 69.68 ng/mL and 77.69 ng/mL and 41.93 ng/mL and 76.13 ng/mL
same,Plasma concentration,"repeated oral 0.03 mg/kg, Day 1, 0.5 h, mean",64.96 ng/mL
same,Plasma concentration,"repeated oral 0.03 mg/kg, Day 1, 24 h, individual rats, 0.03 mg/kg",1.641 ng/mL and 1.374 ng/mL and 5.810 ng/mL and 8.969 ng/mL and 1.766 ng/mL and 7.813 ng/mL and 3.603 ng/mL
same,Plasma concentration,"repeated oral 0.03 mg/kg, Day 1, 24 h, mean",4.696 ng/mL
same,Plasma concentration,"repeated oral 0.03 mg/kg, Day 7, 24 h, individual rats, 0.03 mg/kg",2.975 ng/mL and 2.144 ng/mL and 14.97 ng/mL and 24.57 ng/mL and 7.857 ng/mL and 2.119 ng/mL and 5.014 ng/mL
same,Plasma concentration,"repeated oral 0.03 mg/kg, Day 7, 24 h, mean",6.838 ng/mL
same,Plasma concentration,"repeated oral 0.03 mg/kg, Day 14, 0.5 h, individual rats, 0.03 mg/kg",19.34 ng/mL and 56.51 ng/mL and 53.07 ng/mL and 90.16 ng/mL and 75.39 ng/mL and 23.11 ng/mL and 72.02 ng/mL
same,Plasma concentration,"repeated oral 0.03 mg/kg, Day 14, 0.5 h, mean",51.46 ng/mL
same,Plasma concentration,"repeated oral 0.03 mg/kg, Day 14, 24 h, individual rats, 0.03 mg/kg",3.012 ng/mL and 3.971 ng/mL and 9.010 ng/mL and 15.92 ng/mL and 10.68 ng/mL and 0.6289 ng/mL and 6.008 ng/mL
same,Plasma concentration,"repeated oral 0.03 mg/kg, Day 14, 24 h, mean",9.081 ng/mL
same,Plasma concentration,"repeated oral 0.1 mg/kg, Day 1, 0.5 h, individual rats, 0.1 mg/kg",202.3 ng/mL and 254.1 ng/mL and 209.7 ng/mL and 142.8 ng/mL and 254.2 ng/mL and 143.9 ng/mL and 56.83 ng/mL and 269.5 ng/mL
same,Plasma concentration,"repeated oral 0.1 mg/kg, Day 1, 24 h, individual rats, 0.1 mg/kg",15.16 ng/mL and 12.10 ng/mL and 8.688 ng/mL and 14.16 ng/mL and 21.79 ng/mL and 16.89 ng/mL and 67.75 ng/mL and 32.61 ng/mL
same,Plasma concentration,"repeated oral 0.1 mg/kg, Day 7, 24 h, individual rats, 0.1 mg/kg",58.71 ng/mL and 48.75 ng/mL and 30.51 ng/mL and 37.24 ng/mL and 78.95 ng/mL and 69.59 ng/mL and 161.4 ng/mL and 61.03 ng/mL
same,Plasma concentration,"repeated oral 0.1 mg/kg, Day 14, 0.5 h, individual rats, 0.1 mg/kg",127.4 ng/mL and 39.41 ng/mL and 36.70 ng/mL and 54.83 ng/mL and 93.73 ng/mL and 108.2 ng/mL and 128.5 ng/mL and 174.0 ng/mL
same,Plasma concentration,"repeated oral 0.1 mg/kg, Day 14, 24 h, individual rats, 0.1 mg/kg",5.812 ng/mL and 5.988 ng/mL and 9.558 ng/mL and 3.499 ng/mL and 32.22 ng/mL and 49.20 ng/mL and 104.7 ng/mL and 11.96 ng/mL
same,Plasma concentration,"0.03 mg/kg oral once daily, Day 1, 0.5 h, mean, n = 12",64.96 ng/mL
same,Plasma concentration,"0.03 mg/kg oral once daily, Day 1, 24 h, mean, n = 12",4.696 ng/mL
same,Plasma concentration,"0.03 mg/kg oral once daily, Day 7, 24 h, mean, n = 12",6.838 ng/mL
same,Plasma concentration,"0.03 mg/kg oral once daily, Day 14, 0.5 h, mean, n = 12",51.46 ng/mL
same,Plasma concentration,"0.03 mg/kg oral once daily, Day 14, 24 h, mean, n = 12",9.081 ng/mL
same,Plasma concentration,"0.1 mg/kg oral once daily, Day 1, 0.5 h, mean, n = 12",204.2 ng/mL
same,Plasma concentration,"0.1 mg/kg oral once daily, Day 1, 24 h, mean, n = 12",21.78 ng/mL
same,Plasma concentration,"0.1 mg/kg oral once daily, Day 7, 24 h, mean, n = 12",53.46 ng/mL
same,Plasma concentration,"0.1 mg/kg oral once daily, Day 14, 0.5 h, mean, n = 12",133.8 ng/mL
same,Plasma concentration,"0.1 mg/kg oral once daily, Day 14, 24 h, mean, n = 12",29.24 ng/mL
same,Plasma concentration,"0.3 mg/kg oral once daily, Day 1, 0.5 h, mean, n = 12",545.5 ng/mL
same,Plasma concentration,"0.3 mg/kg oral once daily, Day 1, 24 h, mean, n = 12",90.48 ng/mL
same,Plasma concentration,"0.3 mg/kg oral once daily, Day 7, 24 h, mean, n = 12",190.6 ng/mL
same,Plasma concentration,"0.3 mg/kg oral once daily, Day 14, 0.5 h, mean, n = 12",686.9 ng/mL
same,Plasma concentration,"0.3 mg/kg oral once daily, Day 14, 24 h, mean, n = 12",102.1 ng/mL
same,Plasma concentration,"1 mg/kg oral once daily, Day 1, 0.5 h, mean, n = 12",1635 ng/mL
same,Plasma concentration,"1 mg/kg oral once daily, Day 1, 24 h, mean, n = 12",285.7 ng/mL
same,Plasma concentration,"1 mg/kg oral once daily, Day 7, 24 h, mean, n = 12",557.2 ng/mL
same,Plasma concentration,"1 mg/kg oral once daily, Day 14, 0.5 h, mean, n = 12",1769 ng/mL
same,Plasma concentration,"1 mg/kg oral once daily, Day 14, 24 h, mean, n = 12",490.6 ng/mL
